Laboratory results as given in PMC12298007 (Pharmaceuticals, 2025).
Read-outs that look alike come from different tables or passages of the source.

Tests used:
[1] = Biodistribution, PC-3 xenograft mice; format: in vivo, NOD SCID mice; conditions: female, NOD SCID, intravenous, total radioactivity; for tissue uptake at 7.3 h: Mouse #2, 7.3 h p.i., 1.43 nmol; for tissue uptake at 7.3 h / tissue uptake at 4 h / tissue uptake at 25.1 h: single tracer, PC-3 xenograft; for tissue uptake at 4 h: Mouse #3, 4 h p.i., 1.49 nmol; for tissue uptake at 25.1 h: Mouse #1, 25.1 h p.i., 1.34 nmol
From the text: (§1) Tumor growth and body weight were monitored daily. […]
(§2) 3.6.1 Biodistribution studies
(§3) xenograft-bearing female NOD SCID mice. […]

PC-3 xenograft = assay: Biodistribution, PC-3 xenograft mice; format: in vivo, NOD SCID mice; conditions: single tracer, PC-3 xenograft
From the text: as §1, §2, §3

[2] = Biodistribution, CHO-K1-GRPR + CHO-K1-PSMA dual xenograft mice; conditions: female, NOD SCID, mouse, intravenous, total radioactivity; for tissue uptake at 24.2 h / tissue uptake at 25.2 h: single tracer; for tissue uptake at 24.2 h / tissue uptake at 25.8 h / tissue uptake at 25.2 h / tissue uptake at 17.6 h: dual xenograft; for tissue uptake at 24.2 h: 24.2 h p.i.; for tissue uptake at 25.8 h: 1 nmol, Mouse #8, 25.8 h p.i., 1.00 nmol; for tissue uptake at 25.8 h / tissue uptake at 17.6 h: dual tracer; for tissue uptake at 25.2 h: 1.08 nmol, Mouse #6, 25.2 h p.i.; for tissue uptake at 17.6 h: 2.69 nmol, Mouse #9, 17.6 h p.i.; for tissue uptake: CHO-K1-GRPR xenograft tumor, Uptake in CHO-K1-GRPR xenografts, range
Description: Six-to-eight-week-old female immunodeficient mice (NOD SCID) were obtained from the Core facility laboratory animal breeding and husbandry of the Medical University of Vienna, Himberg, Austria. Animals were kept in individually ventilated cages with 12 h light–dark cycle. All experiments were approved by the Federal Ministry of Education, Science and Research, Republic of Austria (2020-0.253.820 and BMBWF-66.009/0122-V/3b/2019) and performed according to the guidelines from the Federation of the European Laboratory Animal Science Associations (FELASA). After an acclimatization period of two weeks, animals were injected with 3 × 10^6 CHO-K1-GRPR cells in the right flank and 3 × 10^6 CHO-K1-PSMA cells in the left flank (3 × 10^6 in 100 µL serum-free medium each). It should be noted that approximately the same passage (±1 passage number) was used for inoculation for both cell lines to ensure similar cell viability, target incidence, and density in vivo. Tracer uptake (and thus target expression) was confirmed three days prior to inoculation in cell uptake experiments. […] Tumor growth and body weight were monitored daily. Animals were subjected to imaging after 1.5–2 weeks of tumor growth (final tumor volume of 100–800 mm^3). Endpoints were defined as rapid weight loss up to 20% body weight, tumor volume ≥ 1000 mm^3, tumor volume < 1000 mm^3 with signs of necrosis (ulcerated surface), as well as clearly detectable apathy and pain upon touch.
Animals used in imaging studies were sacrificed at different time points post injectionem (p.i.) after the last imaging time point by cervical dislocation under isofluorane anesthesia. Selected organs were removed and weighed, and organ activities were measured in a γ-counter. For animals in which a dual-tracer cocktail was administered, the organs were measured several times over a period of 2–3 weeks to use these datasets in specific calculation methods (Section 3.6 in the SI) to obtain the correct activity for each individual radionuclide at the start of the measurement series.
[99mTc]Tc-PSMA-I&S or both (dual tracer cocktail) were injected into the tail vein of tumor
xenograft-bearing female NOD SCID mice. They were sacrificed by cervical dislocation under
isofluoran anesthesia at different time points post injectionem (p.i.) after the last imaging time
point. Selected organs were removed, weighed and organ activities measured in a γ-counter.

PC-3 xenografts = system: PC-3 xenografts; set-up: method as in Mansi et al. [37]; conditions: 24 h p.i.; female nude mice; i.v. 10 pmol; n = 4; ref Mansi et al. [37]; cited from earlier work
[3] = PC-3 tumor, read-out: Biodistribution: PC-3 Tumor
[4] = bone, read-out: Biodistribution: Bone
[5] = colon (empty), read-out: Biodistribution: Colon (empty)
[6] = intestine (empty), read-out: Biodistribution: Intestine (empty)
[7] = liver, read-out: Biodistribution: Liver
[8] = muscle, read-out: Biodistribution: Muscle
[9] = spleen, read-out: Biodistribution: Spleen
[10] = stomach (empty), read-out: Biodistribution: Stomach (empty)
[11] = Mouse #1, 25.1 h p.i., 1.34 nmol
[12] = CHO-K1-GRPR tumor, Biodistribution: CHO-K1-GRPR Tumor
[13] = CHO-K1-PSMA tumor, Biodistribution: CHO-K1-PSMA Tumor
[14] = adrenal, Biodistribution: Adrenal
[15] = kidney, Biodistribution: Kidney
[16] = muscle, Biodistribution: Muscle
[17] = pancreas, Biodistribution: Pancreas
[18] = spleen, Biodistribution: Spleen
[19] = stomach (empty), Biodistribution: Stomach (empty)

Work on `CC(C)C[C@H](NC(=O)C[C@H](O)[C@H](CC(C)C)NC(=O)[C@H](Cc1c[nH]cn1)NC(=O)CNC(=O)[C@@H](NC(=O)[C@H](C)NC(=O)[C@H](Cc1c[nH]c2ccccc12)NC(=O)[C@H](CCC(N)=O)NC(=O)[C@@H](Cc1ccccc1)NC(=O)CN1CCC(NC(=O)CN2CCN(CC(=O)O)CCN(CC(=O)O)CCN(CC(=O)O)CC2)CC1)C(C)C)C(N)=O` [[^111In]In-RM2, metal not drawn] yielded a tissue uptake at 7.3 h [1, 3] of 1.36 %ID/g, a tissue uptake at 4 h [1, 3] of 2.75 %ID/g and a tissue uptake at 4 h ([1]; adrenal, read-out: Biodistribution: Adrenal) of 0.13 %ID/g. The tissue uptake at 25.1 h [1, 4] was 0.07 %ID/g, the tissue uptake at 4 h [1, 4] was 0.04 %ID/g and the tissue uptake at 25.1 h [1, 5] was 0.04 %ID/g. For the same compound, the tissue uptake at 7.3 h [1, 5] was 0.04 %ID/g, the tissue uptake at 7.3 h ([1]; heart, read-out: Biodistribution: Heart) was 0.02 %ID/g and the tissue uptake at 25.1 h [1, 6] was 0.08 %ID/g. For the same compound, the tissue uptake at 4 h [1, 6] was 0.08 %ID/g, the tissue uptake at 7.3 h ([1]; kidney, read-out: Biodistribution: Kidney) was 1.29 %ID/g and the tissue uptake at 25.1 h [1, 7] was 0.17 %ID/g. For the same compound, the tissue uptake at 7.3 h [1, 7] was 0.12 %ID/g, the tissue uptake at 4 h [1, 7] was 0.22 %ID/g and the tissue uptake ([1]; mouse, PC-3 xenograft tumor, 4-25.1 h p.i., range over mice, read-out: Uptake in PC-3 xenografts) was 1.36 to 2.75 %ID/g. It also gave a tissue uptake at 25.1 h [1, 8] of 0.01 %ID/g, a tissue uptake at 7.3 h [1, 8] of 0.01 %ID/g and a tissue uptake at 4 h [1, 8] of 0.01 %ID/g. The tissue uptake at 25.1 h ([1]; pancreas, read-out: Biodistribution: Pancreas) was 0.06 %ID/g, the tissue uptake at 25.1 h [1, 9] was 0.16 %ID/g and the tissue uptake at 7.3 h [1, 9] was 0.13 %ID/g. For the same compound, the tissue uptake at 4 h [1, 9] was 0.1 %ID/g, the tissue uptake at 7.3 h [1, 10] was 0.02 %ID/g and the tissue uptake at 4 h [1, 10] was 0.09 %ID/g. For the same compound, the “Biodistribution: Kidney” value (PC-3 xenograft; [11]) was 2.17 % ID/g, the “Biodistribution: PC-3 Tumor” value (PC-3 xenograft; [11]) was 2.20 % ID/g and the “Biodistribution: Heart” value (PC-3 xenograft; Mouse #3, 4 h p.i., 1.49 nmol) was 0.02 % ID/g. The “Biodistribution: Kidney” value (PC-3 xenograft; Mouse #3, 4 h p.i., 1.49 nmol) was 2.20 % ID/g, the tissue uptake at 24.2 h ([2]; CHO-K1-GRPR tumor, 0.37 nmol, Biodistribution: CHO-K1-GRPR Tumor, Mouse #5, 0.37 nmol) was 0.51 %ID/g and the tissue uptake at 24.2 h ([2]; CHO-K1-GRPR tumor, 0.58 nmol, Biodistribution: CHO-K1-GRPR Tumor, Mouse #4, 0.58 nmol) was 0.28 %ID/g. It also gave a tissue uptake at 25.8 h [2, 12] of 0.38 %ID/g, a tissue uptake at 25.2 h [2, 12] of 0.33 %ID/g and a tissue uptake at 24.2 h ([2]; CHO-K1-GRPR tumor, 1.41 nmol, Biodistribution: CHO-K1-GRPR Tumor, Mouse #7, 1.41 nmol) of 0.06 %ID/g. It also gave a tissue uptake at 17.6 h [2, 12] of 0.26 %ID/g, a tissue uptake ([2]; dual-tracer mice #8 and #9) of 0.26 to 0.38 %ID/g and a tissue uptake ([2]; single-tracer mice #4–#7) of 0.06 to 0.51 %ID/g. The tissue uptake at 24.2 h ([2]; CHO-K1-PSMA tumor, 0.37 nmol, Biodistribution: CHO-K1-PSMA Tumor, Mouse #5, 0.37 nmol) was 0.08 %ID/g, the tissue uptake at 25.8 h [2, 13] was 0.08 %ID/g and the tissue uptake at 25.2 h [2, 13] was 0.09 %ID/g. It also gave a tissue uptake at 24.2 h ([2]; CHO-K1-PSMA tumor, 1.41 nmol, Biodistribution: CHO-K1-PSMA Tumor, Mouse #7, 1.41 nmol) of 0.08 %ID/g, a tissue uptake at 17.6 h [2, 13] of 0.09 %ID/g and a tissue uptake at 24.2 h ([2]; adrenal, 0.37 nmol, Biodistribution: Adrenal, Mouse #5, 0.37 nmol) of 0.33 %ID/g. For the same compound, the tissue uptake at 24.2 h ([2]; adrenal, 0.58 nmol, Biodistribution: Adrenal, Mouse #4, 0.58 nmol) was 0.12 %ID/g, the tissue uptake at 25.2 h [2, 14] was 0.16 %ID/g and the tissue uptake at 24.2 h ([2]; adrenal, 1.41 nmol, Biodistribution: Adrenal, Mouse #7, 1.41 nmol) was 0.08 %ID/g. For the same compound, the tissue uptake at 17.6 h [2, 14] was 0.12 %ID/g, the tissue uptake at 25.8 h ([2]; blood, Biodistribution: Blood) was 0.02 %ID/g and the tissue uptake at 25.2 h ([2]; blood, Biodistribution: Blood) was 0.01 %ID/g. It also gave a tissue uptake at 24.2 h ([2]; blood, 1.41 nmol, Biodistribution: Blood, Mouse #7, 1.41 nmol) of 0.01 %ID/g, a tissue uptake at 17.6 h ([2]; blood, Biodistribution: Blood) of 0.02 %ID/g and a tissue uptake at 24.2 h ([2]; bone, 0.37 nmol, Biodistribution: Bone, Mouse #5, 0.37 nmol) of 0.04 %ID/g. The tissue uptake at 24.2 h ([2]; bone, 0.58 nmol, Biodistribution: Bone, Mouse #4, 0.58 nmol) was 0.04 %ID/g, the tissue uptake at 25.8 h ([2]; bone, Biodistribution: Bone) was 0.06 %ID/g and the tissue uptake at 25.2 h ([2]; bone, Biodistribution: Bone) was 0.06 %ID/g. It also gave a tissue uptake at 24.2 h ([2]; bone, 1.41 nmol, Biodistribution: Bone, Mouse #7, 1.41 nmol) of 0.04 %ID/g, a tissue uptake at 24.2 h ([2]; colon (empty), 0.37 nmol, Biodistribution: Colon (empty), Mouse #5, 0.37 nmol) of 0.08 %ID/g and a tissue uptake at 24.2 h ([2]; colon (empty), 0.58 nmol, Biodistribution: Colon (empty), Mouse #4, 0.58 nmol) of 0.04 %ID/g. For the same compound, the tissue uptake at 25.8 h ([2]; colon (empty), Biodistribution: Colon (empty)) was 0.04 %ID/g, the tissue uptake at 24.2 h ([2]; heart, 0.58 nmol, Biodistribution: Heart, Mouse #4, 0.58 nmol) was 0.02 %ID/g and the tissue uptake at 24.2 h ([2]; heart, 1.41 nmol, Biodistribution: Heart, Mouse #7, 1.41 nmol) was 0.02 %ID/g. The tissue uptake at 24.2 h ([2]; intestine (empty), 0.37 nmol, Biodistribution: Intestine (empty), Mouse #5, 0.37 nmol) was 0.06 %ID/g, the tissue uptake at 24.2 h ([2]; intestine (empty), 1.41 nmol, Biodistribution: Intestine (empty), Mouse #7, 1.41 nmol) was 0.04 %ID/g and the tissue uptake at 17.6 h ([2]; intestine (empty), Biodistribution: Intestine (empty)) was 0.04 %ID/g. It also gave a tissue uptake at 24.2 h ([2]; kidney, 0.37 nmol, Biodistribution: Kidney, Mouse #5, 0.37 nmol) of 1.42 %ID/g, a tissue uptake at 24.2 h ([2]; kidney, 0.58 nmol, Biodistribution: Kidney, Mouse #4, 0.58 nmol) of 1.14 %ID/g and a tissue uptake at 25.8 h [2, 15] of 1.07 %ID/g. It also gave a tissue uptake at 25.2 h [2, 15] of 1.69 %ID/g, a tissue uptake at 24.2 h ([2]; kidney, 1.41 nmol, Biodistribution: Kidney, Mouse #7, 1.41 nmol) of 1.34 %ID/g and a tissue uptake at 17.6 h [2, 15] of 1.09 %ID/g. It also gave a tissue uptake at 24.2 h ([2]; liver, 0.37 nmol, Biodistribution: Liver, Mouse #5, 0.37 nmol) of 0.13 %ID/g, a tissue uptake at 24.2 h ([2]; liver, 0.58 nmol, Biodistribution: Liver, Mouse #4, 0.58 nmol) of 0.1 %ID/g and a tissue uptake at 25.8 h ([2]; liver, Biodistribution: Liver) of 0.28 %ID/g. The tissue uptake at 25.2 h ([2]; liver, Biodistribution: Liver) was 0.2 %ID/g, the tissue uptake at 24.2 h ([2]; liver, 1.41 nmol, Biodistribution: Liver, Mouse #7, 1.41 nmol) was 0.17 %ID/g and the tissue uptake at 17.6 h ([2]; liver, Biodistribution: Liver) was 0.13 %ID/g. It also gave a tissue uptake at 25.8 h ([2]; lung, Biodistribution: Lung) of 0.04 %ID/g, a tissue uptake at 24.2 h ([2]; lung, 1.41 nmol, Biodistribution: Lung, Mouse #7, 1.41 nmol) of 0.04 %ID/g and a tissue uptake at 24.2 h ([2]; muscle, 0.37 nmol, Biodistribution: Muscle, Mouse #5, 0.37 nmol) of 0.01 %ID/g. For the same compound, the tissue uptake at 24.2 h ([2]; muscle, 0.58 nmol, Biodistribution: Muscle, Mouse #4, 0.58 nmol) was 0.01 %ID/g, the tissue uptake at 25.8 h [2, 16] was 0.01 %ID/g and the tissue uptake at 25.2 h [2, 16] was 0.02 %ID/g. For the same compound, the tissue uptake at 24.2 h ([2]; muscle, 1.41 nmol, Biodistribution: Muscle, Mouse #7, 1.41 nmol) was 0.01 %ID/g, the tissue uptake at 17.6 h [2, 16] was 0.01 %ID/g and the tissue uptake at 24.2 h ([2]; pancreas, 0.37 nmol, Biodistribution: Pancreas, Mouse #5, 0.37 nmol) was 0.1 %ID/g. The tissue uptake at 24.2 h ([2]; pancreas, 0.58 nmol, Biodistribution: Pancreas, Mouse #4, 0.58 nmol) was 0.07 %ID/g, the tissue uptake at 25.8 h [2, 17] was 0.07 %ID/g and the tissue uptake at 25.2 h [2, 17] was 0.06 %ID/g. For the same compound, the tissue uptake at 24.2 h ([2]; pancreas, 1.41 nmol, Biodistribution: Pancreas, Mouse #7, 1.41 nmol) was 0.04 %ID/g, the tissue uptake at 17.6 h [2, 17] was 0.04 %ID/g and the tissue uptake at 24.2 h ([2]; spleen, 0.37 nmol, Biodistribution: Spleen, Mouse #5, 0.37 nmol) was 0.08 %ID/g. For the same compound, the tissue uptake at 24.2 h ([2]; spleen, 0.58 nmol, Biodistribution: Spleen, Mouse #4, 0.58 nmol) was 0.07 %ID/g, the tissue uptake at 25.8 h [2, 18] was 0.25 %ID/g and the tissue uptake at 25.2 h [2, 18] was 0.13 %ID/g. The tissue uptake at 24.2 h ([2]; spleen, 1.41 nmol, Biodistribution: Spleen, Mouse #7, 1.41 nmol) was 0.08 %ID/g, the tissue uptake at 17.6 h [2, 18] was 0.1 %ID/g and the tissue uptake at 24.2 h ([2]; stomach (empty), 0.37 nmol, Biodistribution: Stomach (empty), Mouse #5, 0.37 nmol) was 0.04 %ID/g. The tissue uptake at 25.8 h [2, 19] was 0.04 %ID/g, the tissue uptake at 25.2 h [2, 19] was 0.04 %ID/g and the “Uptake in PC-3 xenografts” value (PC-3 xenografts) was 6.84 ± 1.02 % ID/g.
